Measured values reported in ChEMBL document CHEMBL1123967, “New potent antagonists of leukotrienes C4 and D4. 1. Synthesis and structure-activity relationships” (J Med Chem, 1988).

Assays:
Cavia porcellus [1] = assay: Inhibition of LTD4 (5 ng/site) induced vascular permeability in guinea pig skin at dose 1 mg/kg given perorally; assay type: functional; conditions: route oral
[2] = target: Cysteinyl leukotriene receptor (Homo sapiens) (UniProt Q9Y271+Q9NS75); assay: In vivo inhibition of LTD4-induced bronchoconstriction in anesthetized guinea pig.; assay type: functional, organism-based; conditions: Cavia porcellus; target entry is the homologue from another species
[3] = target: T1, Cysteinyl leukotriene receptor (Homo sapiens, UniProt Q9Y271+Q9NS75); assay: Inhibition of LTC4 induced smooth muscle contraction of guinea pig ileum; assay type: functional, tissue-based, Cavia porcellus; conditions: target entry is the homologue from another species
T1 sequence (Q9Y271 whole entry): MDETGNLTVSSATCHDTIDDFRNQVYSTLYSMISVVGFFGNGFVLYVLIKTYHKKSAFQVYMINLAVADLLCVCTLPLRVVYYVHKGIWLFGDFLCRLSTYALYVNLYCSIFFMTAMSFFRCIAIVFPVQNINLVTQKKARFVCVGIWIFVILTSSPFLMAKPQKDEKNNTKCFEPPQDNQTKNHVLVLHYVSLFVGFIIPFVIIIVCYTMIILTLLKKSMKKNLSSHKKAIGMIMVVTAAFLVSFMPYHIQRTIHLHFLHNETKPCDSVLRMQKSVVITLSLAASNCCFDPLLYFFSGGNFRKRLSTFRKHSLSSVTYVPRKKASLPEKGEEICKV
T1 sequence (Q9NS75 whole entry): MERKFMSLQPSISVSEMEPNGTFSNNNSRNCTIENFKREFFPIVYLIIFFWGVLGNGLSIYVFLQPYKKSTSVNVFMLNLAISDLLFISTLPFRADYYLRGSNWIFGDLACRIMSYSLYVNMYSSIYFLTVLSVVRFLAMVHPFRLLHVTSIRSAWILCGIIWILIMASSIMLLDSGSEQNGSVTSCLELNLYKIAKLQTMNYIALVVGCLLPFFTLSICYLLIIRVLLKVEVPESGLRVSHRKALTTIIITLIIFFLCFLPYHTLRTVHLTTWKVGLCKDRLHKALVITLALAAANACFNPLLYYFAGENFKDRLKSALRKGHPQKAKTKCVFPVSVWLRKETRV

Cavia porcellus [4] = assay: Inhibition of LTD4 (5 ng/site) induced vascular permeability in guinea pig skin at dose 0.3 mg/kg given perorally; assay type: functional; conditions: route oral
Cavia porcellus [5] = assay: Inhibition of LTB4 induced bronchoconstriction in guinea pig at dose of 3 ug/kg given intravenously; assay type: functional; conditions: iv, read-out: ID50 (the source's name)
Cavia porcellus [6] = assay: Inhibition of LTC4-induced bronchoconstriction in guinea pig at dose of (0.5 ug/kg) given intravenously; assay type: functional; conditions: iv, read-out: ID50 (the source's name)
Cavia porcellus [7] = assay: Inhibition of LTD4-induced bronchoconstriction in guinea pig in guinea pig at dose of (0.5 ug/kg) given intravenously; assay type: functional; conditions: iv, read-out: ID50 (the source's name)
Cavia porcellus [8] = assay: Inhibition of LTE4-induced bronchoconstriction in guinea pig at dose of (1 ug/kg) given intravenously; assay type: functional; conditions: iv, read-out: ID50 (the source's name)
Cavia porcellus [9] = assay: Inhibition of LTD4 (5 ng/site) induced vascular permeability in guinea pig skin at dose 10 mg/kg given perorally; assay type: functional; conditions: route oral
Cavia porcellus [10] = assay: Inhibition of LTD4 (5 ng/site) induced vascular permeability in guinea pig skin at dose 30 mg/kg given perorally; assay type: functional; conditions: route oral
Cavia porcellus [11] = assay: Inhibition of LTC4 induced bronchoconstriction in guinea pig at dose of (0.5 ug/kg) given intravenously; assay type: functional; conditions: iv, read-out: ID50 (the source's name)
Cavia porcellus [12] = assay: Inhibition of LTD4 induced bronchoconstriction in guinea pig at dose of (0.5 ug/kg) given intravenously; assay type: functional; conditions: iv, read-out: ID50 (the source's name)
Cavia porcellus [13] = assay: Inhibition of LTE4 induced bronchoconstriction in guinea pig at dose of 1 ug/kg given intravenously; assay type: functional; conditions: iv, read-out: ID50 (the source's name)
Cavia porcellus [14] = assay: Inhibition of LTB4 induced bronchoconstriction in guinea pig at dose of (1 ug/kg) given intravenously; assay type: functional; conditions: iv, read-out: ID50 (the source's name)
Cavia porcellus [15] = assay: Inhibition of LTD4-induced bronchoconstriction in guinea pig at dose of (0.5 ug/kg) given intravenously; assay type: functional; conditions: iv, read-out: ID50 (the source's name)

Compound | inhibition in vivo at 1 mg/kg (Cavia porcellus [1]) | ID50 [2] | IC50 [3] | inhibition in vivo at 0.3 mg/kg (Cavia porcellus [4]) | ED50 (Cavia porcellus [5]) | ED50 (Cavia porcellus [6]) | ED50 (Cavia porcellus [8]) | inhibition in vivo at 10 mg/kg (Cavia porcellus [9]) | inhibition in vivo at 30 mg/kg (Cavia porcellus [10]) | also measured
CCCCC/C=C/COc1ccc(C(=O)Nc2cccc3c(=O)cc(-c4nn[nH]n4)oc23)cc1 | 25% | 0.72 µg/kg | 0.06 nM |  |  |  |  |  |  | 
O=C(Nc1cccc2c(=O)cc(-c3nnn[nH]3)oc12)c1ccc(OCCCCc2ccccc2)cc1 | 75.2% | 0.8 µg/kg |  | 74.7% | > 500 µg/kg | 0.8 µg/kg | 0.7 µg/kg |  |  | ED50 (Cavia porcellus [7]): 1 µg/kg
CCCCC/C=C/COc1ccc(C(=O)Nc2cccc3c2OC(c2nnn[nH]2)CO3)cc1 (stereo unspecified) |  | 2 µg/kg | 2 nM |  |  |  |  | 30.4% | < 43.8% | 
C=CCCCCCCOc1ccc(C(=O)Nc2cccc3c(=O)cc(-c4nn[nH]n4)oc23)cc1 | < 60.7% | 1.9 µg/kg | 0.11 nM | < 46.7% |  |  |  |  |  | 
O=C(Nc1cccc2c1OC(c1nnn[nH]1)CO2)c1ccc(OCCCCc2ccccc2)cc1 (stereo unspecified) |  | 1.2 µg/kg | 0.37 nM |  | > 500 µg/kg |  |  | 61.8% | 63.2% | ED50 (Cavia porcellus [11]): 1.1 µg/kg; ED50 (Cavia porcellus [12]): 4.4 µg/kg; ED50 (Cavia porcellus [13]): 2 µg/kg
CCCc1c(OCC(O)COc2ccc3c(=O)cc(C(=O)[O-])oc3c2CCC)ccc(C(C)=O)c1O.[Na+] (stereo unspecified) [FPL-55712 SODIUM SALT] |  | 500 µg/kg |  |  |  | 155 µg/kg | 211 µg/kg |  |  | ED50 (Cavia porcellus [14]): > 500 µg/kg; ED50 (Cavia porcellus [15]): 440 µg/kg
